PubChem BioAssay (NCI)
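96-well plates; 48 h exposure; 5 concentrations. Endpoints by linear interpolation between flanking doses. Not reached: highest tested concentration assigned. GI50 is the concentration that inhibits growth by half. TGI denotes the concentration required for complete inhibition of growth.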

Assays:
Assay in all cases: NCI-60 cell line screen, 48 h
SF-268 CNS = test system: SF-268 CNS
UACC-257 melanoma = test system: UACC-257 melanoma
A498 renal = test system: A498 renal
NCI-H522 lung = test system: NCI-H522 lung
786-0 renal = test system: 786-0 renal
OVCAR-4 ovarian = test system: OVCAR-4 ovarian
NCI-H460 lung = test system: NCI-H460 lung
MALME-3M melanoma = test system: MALME-3M melanoma
OVCAR-5 ovarian = test system: OVCAR-5 ovarian
HL-60(TB) leukemia = test system: HL-60(TB) leukemia
UO-31 renal = test system: UO-31 renal
SR leukemia = test system: SR leukemia
RXF 393 renal = test system: RXF 393 renal
MDA-MB-435 = test system: MDA-MB-435
HT29 colon = test system: HT29 colon
UACC-62 melanoma = test system: UACC-62 melanoma
SF-295 CNS = test system: SF-295 CNS
U251 CNS = test system: U251 CNS
PC-3 prostate = test system: PC-3 prostate
SK-MEL-28 melanoma = test system: SK-MEL-28 melanoma
OVCAR-3 ovarian = test system: OVCAR-3 ovarian
T-47D breast = test system: T-47D breast
MOLT-4 leukemia = test system: MOLT-4 leukemia
EKVX NSCLC = test system: EKVX NSCLC
M14 melanoma = test system: M14 melanoma
SNB-19 CNS = test system: SNB-19 CNS
LOX IMVI melanoma = test system: LOX IMVI melanoma
SK-MEL-5 melanoma = test system: SK-MEL-5 melanoma
NCI/ADR-RES ovarian = test system: NCI/ADR-RES ovarian
HCT-15 colon = test system: HCT-15 colon
HS 578T breast = test system: HS 578T breast
IGROV1 ovarian = test system: IGROV1 ovarian
SK-MEL-2 melanoma = test system: SK-MEL-2 melanoma
HCT-116 colon = test system: HCT-116 colon
OVCAR-8 ovarian = test system: OVCAR-8 ovarian
HOP-92 NSCLC = test system: HOP-92 NSCLC
ACHN renal = test system: ACHN renal
CAKI-1 renal = test system: CAKI-1 renal
SK-OV-3 ovarian = test system: SK-OV-3 ovarian
KM12 colon = test system: KM12 colon
HCC-2998 colon = test system: HCC-2998 colon
SW-620 colon = test system: SW-620 colon
MDA-MB-231 breast = test system: MDA-MB-231 breast
RPMI-8226 leukemia = test system: RPMI-8226 leukemia
A549 NSCLC = test system: A549 NSCLC
SN12C renal = test system: SN12C renal
HOP-62 NSCLC = test system: HOP-62 NSCLC
SNB-75 CNS = test system: SNB-75 CNS
CCRF-CEM leukemia = test system: CCRF-CEM leukemia
MCF7 breast = test system: MCF7 breast
COLO 205 colon = test system: COLO 205 colon
MDA-MB-468 breast = test system: MDA-MB-468 breast
TK-10 renal = test system: TK-10 renal
NCI-H226 lung = test system: NCI-H226 lung
DU-145 prostate = test system: DU-145 prostate
NCI-H23 lung = test system: NCI-H23 lung
K-562 leukemia = test system: K-562 leukemia
BT-549 breast = test system: BT-549 breast
SF-539 CNS = test system: SF-539 CNS

SMILES: O=C(NNC(=S)NC(=O)c1ccccc1)c1ccc(OCc2nc3ccc(Cl)cc3[nH]2)cc1
- GI50 (SF-268 CNS): 2.42 µM
- TGI (SF-268 CNS): 12 µM
- GI50 (UACC-257 melanoma): 2.85 µM
- TGI (UACC-257 melanoma): 10.5 µM
- GI50 (A498 renal): 1.6 µM
- TGI (A498 renal): 4.39 µM
- GI50 (NCI-H522 lung): 3.3 µM
- TGI (NCI-H522 lung): 13.4 µM
- GI50 (786-0 renal): 2.05 µM
- TGI (786-0 renal): 6.12 µM
- GI50 (OVCAR-4 ovarian): 2.34 µM
- TGI (OVCAR-4 ovarian): 14.8 µM
- GI50 (NCI-H460 lung): 1.26 µM
- TGI (NCI-H460 lung): 3.6 µM
- GI50 (MALME-3M melanoma): 1.53 µM
- TGI (MALME-3M melanoma): 3.08 µM
- GI50 (OVCAR-5 ovarian): 1.8 µM
- TGI (OVCAR-5 ovarian): 3.93 µM
- GI50 (HL-60(TB) leukemia): 2.22 µM
- TGI (HL-60(TB) leukemia): 7.24 µM
- GI50 (UO-31 renal): 1.39 µM
- TGI (UO-31 renal): 4.11 µM
- GI50 (SR leukemia): 2.52 µM
- TGI (SR leukemia): 11.7 µM
- GI50 (RXF 393 renal): 2.32 µM
- TGI (RXF 393 renal): 6.67 µM
- GI50 (MDA-MB-435): 1.81 µM
- TGI (MDA-MB-435): 4.37 µM
- GI50 (HT29 colon): 3.45 µM
- TGI (HT29 colon): 13.7 µM
- GI50 (UACC-62 melanoma): 1.67 µM
- TGI (UACC-62 melanoma): 3.11 µM
- GI50 (SF-295 CNS): 1.27 µM
- TGI (SF-295 CNS): 2.98 µM
- GI50 (U251 CNS): 1.71 µM
- TGI (U251 CNS): 3.46 µM
- GI50 (PC-3 prostate): 1.79 µM
- TGI (PC-3 prostate): 4.96 µM
- GI50 (SK-MEL-28 melanoma): 1.65 µM
- TGI (SK-MEL-28 melanoma): 3.23 µM
- GI50 (OVCAR-3 ovarian): 1.85 µM
- TGI (OVCAR-3 ovarian): 4.55 µM
- GI50 (T-47D breast): 3.12 µM
- TGI (T-47D breast): 18.6 µM
- GI50 (MOLT-4 leukemia): 2.22 µM
- TGI (MOLT-4 leukemia): 10.2 µM
- GI50 (EKVX NSCLC): 2.12 µM
- TGI (EKVX NSCLC): 5.75 µM
- GI50 (M14 melanoma): 1.55 µM
- TGI (M14 melanoma): 3.79 µM
- GI50 (SNB-19 CNS): 2.1 µM
- TGI (SNB-19 CNS): 6.68 µM
- GI50 (LOX IMVI melanoma): 1.26 µM
- TGI (LOX IMVI melanoma): 2.64 µM
- GI50 (SK-MEL-5 melanoma): 1.78 µM
- TGI (SK-MEL-5 melanoma): 3.93 µM
- GI50 (NCI/ADR-RES ovarian): 0.396 µM
- TGI (NCI/ADR-RES ovarian): 2.55 µM
- GI50 (HCT-15 colon): 0.567 µM
- TGI (HCT-15 colon): 2.13 µM
- GI50 (HS 578T breast): 2.17 µM
- TGI (HS 578T breast): 7.3 µM
- GI50 (IGROV1 ovarian): 2.18 µM
- TGI (IGROV1 ovarian): 5.33 µM
- GI50 (SK-MEL-2 melanoma): 2.08 µM
- TGI (SK-MEL-2 melanoma): 4.95 µM
- GI50 (HCT-116 colon): 1.52 µM
- TGI (HCT-116 colon): 3.51 µM
- GI50 (OVCAR-8 ovarian): 2.1 µM
- TGI (OVCAR-8 ovarian): 5.07 µM
- GI50 (HOP-92 NSCLC): 2.18 µM
- TGI (HOP-92 NSCLC): 6.26 µM
- GI50 (ACHN renal): 2.04 µM
- TGI (ACHN renal): 5.82 µM
- GI50 (CAKI-1 renal): 2.48 µM
- TGI (CAKI-1 renal): 9.45 µM
- GI50 (SK-OV-3 ovarian): 2.05 µM
- TGI (SK-OV-3 ovarian): 4.89 µM
- GI50 (KM12 colon): 1.89 µM
- TGI (KM12 colon): 4.11 µM
- GI50 (HCC-2998 colon): 1.68 µM
- TGI (HCC-2998 colon): 3.35 µM
- GI50 (SW-620 colon): 1.99 µM
- TGI (SW-620 colon): 4.55 µM
- GI50 (MDA-MB-231 breast): 1.71 µM
- TGI (MDA-MB-231 breast): 3.37 µM
- GI50 (RPMI-8226 leukemia): 2.83 µM
- TGI (RPMI-8226 leukemia): 21.6 µM
- GI50 (A549 NSCLC): 1.99 µM
- TGI (A549 NSCLC): 4.49 µM
- GI50 (SN12C renal): 1.57 µM
- TGI (SN12C renal): 3.16 µM
- GI50 (HOP-62 NSCLC): 1.76 µM
- TGI (HOP-62 NSCLC): 3.56 µM
- GI50 (SNB-75 CNS): 1.48 µM
- TGI (SNB-75 CNS): 4.78 µM
- GI50 (CCRF-CEM leukemia): 1.44 µM
- TGI (CCRF-CEM leukemia): 10.5 µM
- GI50 (MCF7 breast): 2.91 µM
- TGI (MCF7 breast): 17.7 µM
- GI50 (COLO 205 colon): 2.66 µM
- TGI (COLO 205 colon): 9.34 µM
- GI50 (MDA-MB-468 breast): 2.52 µM
- TGI (MDA-MB-468 breast): 9.45 µM
- GI50 (TK-10 renal): 4.49 µM
- TGI (TK-10 renal): 21.2 µM
- GI50 (NCI-H226 lung): 2.02 µM
- TGI (NCI-H226 lung): 7.82 µM
- GI50 (DU-145 prostate): 3.02 µM
- TGI (DU-145 prostate): 15.3 µM
- GI50 (NCI-H23 lung): 1.78 µM
- TGI (NCI-H23 lung): 3.7 µM
- GI50 (K-562 leukemia): 2.79 µM
- TGI (K-562 leukemia): > 100 µM
- GI50 (BT-549 breast): 1.54 µM
- TGI (BT-549 breast): 3.14 µM
- GI50 (SF-539 CNS): 1.76 µM
- TGI (SF-539 CNS): 3.23 µM
